Results reported in patent US20230382851A1, “GAMMA-HYDRO[…] AND PROCESSES FOR MAKING AND USING THEM” (Zevra Therapeutics, Inc., priority 2022, published 2023).

Assay: Pharmacokinetics of GHB in plasma after oral gavage of GHB delivering compounds; relative oral bioavailability vs sodium oxybate
Settings: vehicle water
[1] = molar equivalent of 100 mg/kg NaGHB
[2] = dose equivalent to 80 mg/kg NaGHB

Compound	% AUC0-4 hr vs study comparator (sodium oxybate) [1] [%]	% Cmax vs study comparator (sodium oxybate) [1] [%]	% AUC0-4 hr vs study comparator (sodium oxybate) [2] [%]	% Cmax vs study comparator (sodium oxybate) [2] [%]
O=C1CCCO1 [GBL]	27	70		
CCOC(=O)OCCCC(=O)O [O-(ethoxycarbonyl)-GHB, O-(Ethoxycarbonyl)-GHB]			54	51
